Experimental data published in US11986528B2, “Use of a mixture of lauroyl macrogolglyceride and polyethylene glycol as an excipient” (GATTEFOSSE SAS, priority 2020, dated 2024).
≈ marks a conversion by molar mass, not a printed value.

Legend:
[1] = dissolution (liberation) of terfenadine from capsules, FIG. 4; format: physicochemical; settings: after 120 minutes; dose 60 mg
Experimental: Another active principle, terfenadine, was formulated with Gelucire® 44/14. The mixture was cast into a capsule in a manner that was similar to that of Example 1 above which used piroxicam.
The dose was 60 mg, for a total of 680 mg of formulation.
The graph of FIG. 4 was therefore obtained, illustrating the liberation L (%) of the active principle as a function of time t in minutes, in which: • the curve C1 (invention) corresponds to a mixture of terfenadine/Gelucire® 44/14/PEG 6000, in which the ratio by weight of Gelucire® 44/14/PEG 6000 is 65/35: • the curve C2 (invention) corresponds to a mixture of terfenadine/Gelucire® 44/14/PEG 6000, in which the ratio by weight of Gelucire® 44/14/PEG 6000 is 60/40; • the curve C3 (control 1) corresponds to a mixture of terfenadine/PEG 6000; • the curve C4 (control 2) corresponds to terfenadine alone.

[2] = water at 25° C.; cited from earlier work

CC(C)(C)c1ccc(C(O)CCCN2CCC(C(O)(c3ccccc3)c3ccccc3)CC2)cc1 (centres unmarked) [terfenadine]
liberation L of terfenadine [1]: below 10% | solubility in water [2]: 250 µg/mL (≈ 530 µM)
